# Source: paper PMC11475408, “All‐Inorganic Polyoxometalates Act as Superchaotropic Membrane Carriers” (Advanced Materials (Deerfield Beach, Fla.), 2023)
# Where two headings read alike, the source gives them in different places.
# How the values were obtained:
# [1] = CF transport assay in EYPC⊃CF vesicles (carrier activity); type: biochemical; design: key to Carrier activity: ‐ – ‐: No detectable activity at pH 5.5 and 7.4; details: for heptaLys Ymax / EC50 / HeptaArg Y max / PolyArg Y max / Protamine Y max / HeptaArg Ymax, pH 5.5 / PolyArg Ymax, pH 5.5 / Protamine Ymax, pH 5.5: CF assay; for heptaLys Ymax: 13 µM phospholipids; for heptaLys Ymax / HeptaArg Y max / PolyArg Y max / Protamine Y max / HeptaArg Ymax, pH 5.5: ±2% error (SD); for HeptaArg Y max: 13 µM lipid, 10 mM Hepes or Tris, 10 min, Hill fit, triplicates; for heptaLys E / PolyArg E (activation efficiency) / Protamine E (activation efficiency) / HeptaArg E (activation efficiency) / HeptaArg E, pH 5.5 / PolyArg E, pH 5.5 / Protamine E, pH 5.5: f = 20.6; for heptaLys E / PolyArg E (activation efficiency) / Protamine E (activation efficiency) / HeptaArg E (activation efficiency) / HeptaArg E, pH 5.5: 10% error; for HeptaArg E (activation efficiency): E = Ymax(pEC50/f); for Transport activity (in words): EYPC⊃CF vesicles, neutral pH, carrier then cargo; for Onset for transport activity (carrier concentration): vesicles, heptaArg dose-response curves (Figure 2b)
# Text: The capability of POMs to act as membrane carriers was explored first in large unilamellar vesicles (LUVs) loaded with carboxyfluorescein (CF).^[ [54], [55] ^] We selected […] representative cationic peptides, heptaarginine (heptaArg), heptalysine (heptaLys), protamine, and polyarginine (polyArg), as test cargos. Inside the LUVs, the CF dye was encapsulated at self‐quenching concentrations. With a suitable carrier, heptaArg can be taken up into the vesicles, bind with entrapped CF, and shuttle back to the exterior, diluting the previously quenched CF, and thereby restoring its fluorescence (Figure 1c). In the time‐resolved fluorescence experiments (Figure 2a), to test whether a particular POM acts as molecular carrier, the CF emission was continuously monitored during the addition of the inorganic carrier (t = 60 s) and after injection of the impermeable selected cargo (t = 120 s). Toward the end of the experiment (t = 600 s), the surfactant Triton X‐100 was added to release all the entrapped CF and allow normalization of the intensity data.
# A thin lipid film was prepared by evaporating a lipid solution of EYPC (egg yolk phosphatidylcholine, 25 mg) in CHCl3 (1 mL) with a stream of nitrogen and then dried in vacuo overnight. The dry film was rehydrated with 1 mL buffer (50 mM CF, 10 mM Hepes, pH 7.4 or 50 mM CF, 10 mM Tris, pH 7.4) for 30 min at room temperature, subjected to freeze–thaw cycles (7 times) and extrusions (15 times) through a polycarbonate membrane (pore size 100 nm). Extravesicular components were removed by size exclusion chromatography (NAP‐25 column Sephadex G‐25 DNA grade) with 10 mM Hepes, 107 mM NaCl, pH 7.4, or 10 mM Hepes, 107 mM NaCl, pH 7.4. Phospholipid concentration was calculated by the Stewart assay.^[ [81] ^]
# Acidic vesicles were prepared analogously but the rehydration and elution buffer were 50 mM CF, 10 mM Mes, pH 5.5 and 10 mM Mes, 107 mM NaCl, pH 5.5. respectively.
# Vesicles stock solutions (5–10 µL) were diluted with the corresponding buffer in a disposable plastic cuvette and gently stirred (total volume 2000 µL, final lipid concentration 13 µM). Carboxyfluorescein fluorescence was monitored at λ em = 517 nm (λ ex = 492 nm) as a function of time after addition of POMs at 60 s, analyte at 120 s and Triton X‐100 (24 µL 1.2% wt/vol) at 600 s to lyse the vesicles, for calibration. Fluorescence intensities were normalized to fractional emission as (1) It=It−I0/I∞−I0 where I 0 = I t before POM addition and […] after lysis. For Hill analysis, I t before lysis was defined as transport activity, Y, and plotted against POM concentration, c, and fitted to the Hill Equation (2), to afford the activity in absence of POM, Y 0, the maximal activity, Y max, the concentration needed to achieve 50% of maximal activity, EC 50, and the Hill coefficient, n (2) Y=Y0+Ymax−Y0/1+EC50/c^n
# In the transport measurements, where different carriers (POMs) are tested with the same cargo, the activator efficiency (E) is determined by their capacity to transport the impermeable cargo to the intravesicular region and is characterized by Y max, its maximal activity, and EC 50, the effective activator concentration. An ideal carrier reaches high Y max at low EC 50. To count both factors, the activator efficiency is defined as (3) E=YmaxpEC50/f were pEC 50 is the negative logarithm of the EC 50, and f a scaling factor, which was set to 20.6 to calibrate the highest (previously known) activation efficiency, E, as 10.^[ [55] ^]
# [2] = U-tube transport experiment through CHCl3; details: CHCl3 bulk phase; CF 100, POM 50, heptaArg 10 µM; 24 h; fluorescence
# Text: In the U‐tube experiments, the trans phase contained only buffer, and the cis phase is loaded with combinations of CF, carrier (POM), and cargo (heptaArg). Aliquots of the trans phase are taken and evaluated by fluorescence at different times. The trans phase is initially (t = 0) nonfluorescent, but the transport of CF from the cis phase through the chloroform barrier leads to fluorescence, signaling successful transport. […] This is consistent with translocation of a POM•heptaArg•CF complex through the organic phase, in support of the mechanism in Figure 1c.
# The U‐tubes were house‐made, similar to those of Rebek^[ [82] ^] and Matile,^[ [54] ^] consisting in a small beaker with a central glass barrier, separating the two aqueous layers, cis ([…]) and trans (receiving phase), but allowing an interface chloroform layer below the cis and trans phases. 3 mL CHCl3 are placed into the U‐tube and 1 mL of the cis (combinations of carrier (POM), cargo (heptaArg) and CF in buffer) and trans (1 mL buffer) phases were added. The organic phase was stirred at 700 rpm at room temperature. Aliquots (25 µL) from the trans phase were taken at different times, 400 µL of buffer were added and measured by fluorescence.
# [3] = Hydrolysis/stability of POMs in buffer by NMR; details: for Hydrolysis/stability pH 5.5: 10 mM Mes, 107 mM NaCl, long-term (24 h and longer)
# Procedure: First, their long‐term (24 h and longer) fate in aqueous solution (slightly acidic and neutral) was investigated by applying the active NMR nuclei in their composition (Table S9 and Figures S24–S37, see the Supporting Information for details).
# NMR-spectroscopic characterization of identity and stability
# NMR spectroscopy for all POMs tested was performed under experimental conditions.
# [4] = EYPC (zwitterionic), heptaLys cargo
# [5] = EYPC (zwitterionic), heptaLys cargo, 5% error (SD), read-out: heptaLys EC50
# [6] = EYPC LUVs, 10 µM heptaArg, 107 mM NaCl, pH 7.4
# [7] = EYPC LUVs, 0.1 µM polyArg, pH 7.4, 5% error (SD), read-out: PolyArg EC 50
# [8] = EYPC LUVs, 0.1 µM polyArg, pH 7.4
# [9] = EYPC LUVs, 1 µM protamine, pH 7.4, 5% error (SD), read-out: Protamine EC 50
# [10] = EYPC LUVs, 1 µM protamine, pH 7.4
# [11] = EYPC LUVs, 10 µM heptaArg, pH 7.4, carrier concentration for 50% of Ymax, 5% error (SD), read-out: HeptaArg EC 50
# [12] = EYPC vesicles, 10 µM heptaArg, 10 mM Mes, 107 mM NaCl, pH 5.5
# [13] = EYPC vesicles, heptaArg cargo, 10 mM Mes, 107 mM NaCl, pH 5.5, 5% error (SD), read-out: HeptaArg EC50, pH 5.5
# [14] = EYPC vesicles, polyArg cargo, 10 mM Mes, 107 mM NaCl, pH 5.5
# [15] = EYPC vesicles, polyArg cargo, pH 5.5, read-out: PolyArg EC50, pH 5.5
# [16] = EYPC vesicles, protamine cargo, 10 mM Mes, 107 mM NaCl, pH 5.5
# [17] = EYPC vesicles, protamine cargo, pH 5.5, read-out: Protamine EC50, pH 5.5
# [18] = EYPC LUVs, 10 µM heptaArg, pH 7.4
# [19] = EYPC vesicles, protamine, pH 5.5
# [20] = 3 mM POM, 10 mM Mes pH 5.5, 31P NMR integration
# [21] = 3 mM POM, 10 mM Tris-HCl pH 7.5, 31P NMR integration
substance,measurement,setting,value
K4[α‐Si^IVMo^VIW^VI 11O40]·24H2O [[SiMoW11]^4‒],heptaLys Ymax,[1]; [4],54%
same,EC50,[1]; [5],22 µM
same,HeptaArg Y max,[1]; [6],66%
same,EC50,[1]; [7],13 µM
same,PolyArg Y max,[1]; [8],94%
same,EC50,[1]; [9],19 µM
same,Protamine Y max,[1]; [10],72%
same,EC50,[1]; [11],17 µM
same,"HeptaArg Ymax, pH 5.5",[1]; [12],66%
same,EC50,[1]; [13],9 µM
same,"PolyArg Ymax, pH 5.5",[1]; [14],86%
same,EC50,[1]; [15],5 µM
same,"Protamine Ymax, pH 5.5",[1]; [16],80%
same,EC50,[1]; [17],14 µM
same,heptaLys E,[1]; [4],4.4
same,PolyArg E (activation efficiency),[1]; [8],8.6
same,Protamine E (activation efficiency),[1]; [10],6.0
same,HeptaArg E (activation efficiency),[1]; [18],5.7
same,"HeptaArg E, pH 5.5","[1]; EYPC vesicles, pH 5.5",6.6
same,"PolyArg E, pH 5.5","[1]; EYPC vesicles, pH 5.5",9.7
same,"Protamine E, pH 5.5",[1]; [19],7.3
same,Transport activity (in words),[1],triggered the desired increase in fluorescence characteristic for cargo transport
same,Onset for transport activity (carrier concentration),[1],around 1 µM
same,Carrier behaviour in U-tube (CF in trans phase),[2],act as “real” carriers
same,Hydrolysis/stability pH 5.5,[3]; NMR,Stable
same,Solution stability in Mes pH 5.5 (183W NMR),"[3]; 10 mM POM, 33 mM Mes pH 5.5 (final pH 5), only signals of intact anion, acquisition 60 h",solution stability for up to 60 h
same,"% parent anion, Tris-HCl pH 7.5 (183W NMR)","[3]; 10 mM POM, 33 mM Tris pH 7.5 (final pH 6.9), 183W NMR signal intensities, acquisition 60 h",45%
same,Hydrolysis at pH 7.5 (fraction hydrolysed),"[3]; neutral buffer pH 7.5, high concentration, NMR, after 24 h",45%
K4[α‐P^VV^VW^VI 11O40]·4H2O [[PVW11]^4‒],heptaLys Ymax,[1]; [4],62%
same,EC50,[1]; [5],38 µM
same,HeptaArg Y max,[1]; [6],84%
same,EC50,[1]; [7],12 µM
same,PolyArg Y max,[1]; [8],88%
same,EC50,[1]; [9],41 µM
same,Protamine Y max,[1]; [10],88%
same,EC50,[1]; [11],49 µM
same,"HeptaArg Ymax, pH 5.5",[1]; [12],79%
same,EC50,[1]; [13],28 µM
same,"PolyArg Ymax, pH 5.5",[1]; [14],91%
same,EC50,[1]; [15],5 µM
same,"Protamine Ymax, pH 5.5",[1]; [16],79%
same,EC50,[1]; [17],19 µM
same,heptaLys E,[1]; [4],4.3
same,PolyArg E (activation efficiency),[1]; [8],8.2
same,Protamine E (activation efficiency),[1]; [10],5.9
same,HeptaArg E (activation efficiency),[1]; [18],5.3
same,"HeptaArg E, pH 5.5","[1]; EYPC vesicles, pH 5.5",5.9
same,"PolyArg E, pH 5.5","[1]; EYPC vesicles, pH 5.5",10.1
same,"Protamine E, pH 5.5",[1]; [19],6.6
same,Transport activity (in words),[1],triggered the desired increase in fluorescence characteristic for cargo transport
same,Onset for transport activity (carrier concentration),[1],around 1 µM
same,Carrier behaviour in U-tube (CF in trans phase),[2],act as “real” carriers
same,"% monolacunary [PVWVI11O39]7‒ formed, Mes pH 5.5 after 1 day",[3]; [20],1%
same,"% monolacunary [PVWVI11O39]7‒ formed, Mes pH 5.5 after 5 days",[3]; [20],1%
same,"% parent anion, Mes pH 5.5 after 1 day",[3]; [20],99%
same,"% parent anion, Mes pH 5.5 after 5 days",[3]; [20],99%
same,"% parent (active) anion, Mes pH 5.5 freshly prepared","[3]; 3 mM POM, 10 mM Mes pH 5.5, 31P NMR signal integration, appr. 3 h after dissolution",99%
same,"% parent anion, Tris-HCl pH 7.5 after 1 day",[3]; [21],71%
same,"% parent anion, Tris-HCl pH 7.5 after 5 days",[3]; [21],68%
same,Hydrolysis/stability pH 5.5,[3]; NMR,Stable
Na3[α‐P^VW^VI 12O40]·nH2O [[PW12]^3‒],Carrier activity,"[1]; EYPC vesicles, pH 5.5 and 7.4, cargos heptaArg, protamine, polyArg ([AlMo6]: heptaArg and protamine only)","‐ – ‐ ^k) , ^l)"
same,Transport activity (in words),[1],neither an interaction with the membrane nor cargo transport
same,"% monolacunary [PVWVI11O39]7‒ formed, Mes pH 5.5 after 1 day",[3]; [20],61%
same,"% monolacunary [PVWVI11O39]7‒ formed, Mes pH 5.5 freshly prepared",[3]; [20],61%
same,"% parent anion, Mes pH 5.5 after 1 day",[3]; [20],5%
same,"% parent anion, NaOAc/HOAc pH 4 after 1 day","[3]; 3 mM POM, 10 mM NaOAc/HOAc pH 4, 31P NMR integration",28%
same,Hydrolysis/stability pH 5.5,[3]; NMR,to [P^VW^VI 11O39]^7‒
